Results on two compounds are retold here after US20250295658A1, “ANTIPARASITIC AGENTS AND METHODS” (Whitehead Institute for Biomedical Research, priority 2022, published 2025).

Data set [1] relates to Toxoplasma gondii. Kind of data set: Pyrimethamine/DAHP drug synergy lytic assays. Type of data set: cell-based. To be noted: pyrimethamine in combination with 2.5 mM DAHP; FIGS. 1G-H. How it is done: Pyrimethamine/DAHP Drug Synergy Lytic Assays
96 well plates were utilized to generate 8-point dosage curves of parasites grown in various concentrations of pyrimethamine with and without 2.5 mM DAHP. At the start of the assay, prior to parasite harvest, 96 well plates containing confluent fibroblasts were set up with 1.33× the desired final drug concentrations in 150 μl of volume. This ensured that the addition of 50 μl of parasites would result in the desired 1× drug concentration of both pyrimethamine and DAHP. Wells designated as containing less than the maximum dosage of either drug (10 μg/ml pyrimethamine and 2.5 mM DAHP) received the equivalent volume of vehicle (ethanol for pyrimethamine, PBS for DAHP). Parasites were then force-lysed, filtered, and resuspended to a concentration of 5e5 parasites/ml. 50 μl of parasites were then added to each well, resulting in an infection of 2.5e4 parasites per well. Plates were then spun at 290 g for 5 min. Plates were then incubated for 3 days to allow for parasite plaquing. Plates were then washed with PBS followed by staining with crystal violet as conducted for plaque assays. Well staining was then quantified by plate reader at the 570 nm wavelength. […] Drug curves were then generated and IC50 values were calculated from biological triplicate experiments in GraphPad Prism 9.

Data set [2] relates to Toxoplasma gondii. As to the kind of experiment: Plaque assays with DAHP and BH4. The data set is classed as cell-based. Conditions: FIG. 1F. The protocol:
Plaque Assays with DAHP and BH4
RHAku80 were maintained for at least two passages in DMEM and HPLM prior to beginning the plaque assay. Confluent human fibroblasts were maintained in 6-well plates in either DMEM or HPLM for at least 24 h prior to the start of the assay. To begin the experiment, parasites maintained in DMEM and HPLM were syringe released and filtered through a […]. Parasites were then counted and diluted such that each well received 500 parasites. Wells were then treated with the indicated concentrations of DAHP or PBS vehicle. For the BH4 rescue experiments, wells received 50 μM BH4 or the equivalent volume of DMSO vehicle. Plaques were allowed to grow for 6 days prior to fixation. For fixation, wells were first washed with PBS, then fixed for 10 min at room temperature with 100% ethanol. Wells were then stained for 10 min with crystal violet (12.5 g crystal violet, 125 ml 100% ethanol, 500 ml 1% ammonium oxalate). Wells were then washed three times with water and allowed to dry overnight.

A further data set has as its system NF54 P. falciparum. Kind of data set: SYBR Green I-based dose-response assay in Plasmodium falciparum. Conditions: atovaquone with 1 mM DAHP, FIGS. 2C-D. The data set is classed as cell-based. How it is done: The NF54 P. falciparum line was cultured and synchronized as described previously.^28,29 Cultures were kept at 37° C. in RPMI-1640 medium supplemented with 25 mM HEPES, 100 μM hypoxanthine, 0.5% Albumax II, 24 mM sodium bicarbonate, 25 μg/mL gentamicin (Life Technologies, Carlsbad, CA 11021-045) and gassed with 5% CO2, 1% O2, and 94% N2 mixture. Dose-Response Assay in Plasmodium falciparum A SYBR Green I-based assay was used to measure in vitro P. falciparum drug susceptibility.^30,31 Ring-stage NF54 parasites were seeded at 1% hematocrit and 1% starting parasitemia in 384-well black clear-bottom plates containing test compounds (stocks of 10 mM pyrimethamine, 0.1 mM atovaquone, and 10 mM DHA in DMSO) plated in triplicate in 12-point serial dilutions for 72 h. […] Lysis buffer (0.16% w/v saponin, 1.6% Triton X-100, 5 mM EDTA, and 20 mM Tris-HCl, pH 7.4) with a 1:1000 dilution of SYBR Green I fluorescent dye (Invitrogen) was added for at least 12 h, and fluorescence readings were taken (excitation at 494 nm, emission at 530 nm) using a SpectraMax M5 (Molecular Devices, Sunnyvale, CA) plate reader. IC50 values were calculated using a nonlinear regression curve fit in Graphpad Prism 9 in biological triplicate.

The test system of data set [3] is C57BL/6J mouse embryonic fibroblasts. Kind of data set: Proliferation of mouse embryonic fibroblasts in DAHP treatment. The data set is classed as cell-based. To be noted: 5 mM DAHP, 48 hours; FIG. 2E. How it is done:
Proliferation of Mouse Embryonic Fibroblasts in DAHP Treatment Twenty-thousand immortalized C57BL/6J mouse embryonic fibroblasts were plated in a well of a 6-well plate and treated with 5 mM DAHP or PBS vehicle. The cells were allowed to grow for 48 hours, then trypsinized and counted. Population doublings were calculated as follows: [formula] [formula]

The conditions of data set [4]: cited from earlier work.
Data set [5] concerns DD-BFD2, CST10-fLuc, pSAG1-nLuc reporter strain. Kind of data set: Firefly and nano-luciferase assays of the DD-BFD2, CST10-fLuc, pSAG1-nLuc reporter strain. Type of data set: cell-based, Toxoplasma. To be noted: 3 μM shield-1. The text has this:
This strain is able to recapitulate the biology of both the acute tachyzoite stage as well as the chronic bradyzoite stage. Differentiation from the tachyzoite to bradyzoite stage is mediated through the expression of Bradyzoite Formation Deficient 2 (BFD2) tagged with a degradation domain. Under standard conditions, the degradation domain ensures BFD2 is degraded from parasites, maintaining them in the tachyzoite stage. Upon the addition of the small-molecule shield-1, BFD2 is stabilized and causes differentiation of parasites to the bradyzoite stage.^34 The engineered parasite strain allows the use of a dual-luciferase system to report on differentiation status and general parasite viability. Expression of firefly luciferase is driven by fusion via t2a peptide to the bradyzoite marker CST10, whereas expression of nano-luciferase is driven by the tachyzoite promoter SAG1. Addition of shield-1 is able to simultaneously increase the CST10 bradyzoite marker while decreasing the SAGI tachyzoite marker (FIGS. 2G-H). […] This enables examination of the chronic parasite state with minimal interference on the endogenous circuity. Chemical screens of this engineered strain can therefore identify compounds that bias parasite state either to the tachyzoite or bradyzoite stage, as well as compounds capable of killing both stages simultaneously. […]

The structures appear in SMILES notation.

On to `Nc1cc(O)nc(N)n1` [DAHP, 2,4-diamino-6-hydroxypyrimidine], for which the “reduction in the pyrimethamine IC50 value” in the data set with Toxoplasma gondii [1] is 70%. In addition, the “effect on parasite viability (plaque assay)” value in the data set on Toxoplasma gondii [2] (2.5 mM DAHP) is “no apparent effect”. Further, the “parasite lytic cycle (plaque assay)” value in the data set on Toxoplasma gondii [2] (5 mM DAHP) is recorded as “able to block the parasite lytic cycle”. In addition, in the data set on Toxoplasma gondii [2] (exogenous BH4 (50 μM)), the “antiparasitic effect of DAHP with exogenous BH4” value was “rescued”. For the same compound, in the data set on NF54 P. falciparum, the “potentiating effect in combination with atovaquone” value is reported as “no potentiating effect”. In data set [3], the “growth of a proliferative mouse fibroblast cell line (population doublings)” value was “no effect”. For the same compound, in data set [4], the solubility result was “poor”.
Turning to `CC[C@H](C(=O)N1CCCC[C@H]1C(=O)O[C@H](CCc1ccc(OC)c(OC)c1)c1cccc(OCCN2CCOCC2)c1)c1cc(OC)c(OC)c(OC)c1` [shield-1], in data set [5] (FIG. 2G), the “CST10 bradyzoite marker (firefly luciferase reporter)” value is recorded as “increase”. Besides, the “SAG1 tachyzoite marker (nano-luciferase reporter)” value in data set [5] (FIG. 2H) was “decreasing”.
